This passage reports IC50 results from patent publication US20120157448A1, “COMPOUNDS FOR TREATING NEURODEGENERATIVE DISEASES” (priority 2010, published 2012).

The target in this assay is T1, BACE-1 (Homo sapiens, UniProt P56817).
T1 construct: endogenous in cells; host or cells: HEK-293 cells stably transfected with wild type APP695
Kind of assay: Cellular BACE-1 inhibition assay (in vitro cellular Amyloidβ 1-40 production, HTRF immunoassay). The format is cell-based. Particulars: inhibition of Amyloidβ 1-40 production; HEK-293 cells stably transfected with wild type APP695; 48 hours incubation; average where tested more than once; read-out: IC50. The method, then:
Materials and Methods: HEK-293 cells stably transfected with a DNA construct containing the coding sequence for the wild type APP695 sequence were grown in Dulbecco's Modified Eagle Medium (“DMEM”) supplemented with 10% fetal bovine serum, penicillin/streptomycin and 150 μg/mL G418. Cells were plated in 96-well plates at 35,000 cells/well and allowed to attach for 8-12 hours. Media was changed to DMEM supplemented with 10% fetal bovine serum, penicillin/streptomycin 15 minutes prior to compound addition. Diluted compounds were then added at a final concentration of 0.5% DMSO. After 48 hours, 4 μL of media from each well was added to a corresponding well of a 384 well plate (Perkin Elmer Cat#6008280) containing the HTRF reagents. HTRF reagents were obtained from the CisBio Amyloid β 1-40 peptide assay kit (Cat#62B40PEC) and were prepared as follows anti-peptide β (1-40)-Cryptate and anti-peptide […] were stored in 2 plate aliquots at −80° C. Diluent and Reconstitution buffer were stored at 4° C. Aliquots of the two antibodies were diluted 1:100 with Reconstitution buffer, and this mixture was diluted 1:2 with Diluent. 12 μL of the reagent mixture was added to the required wells of the 384 well assay plate. The assay plate was incubated at 4° C. for 17 hours and then analyzed for fluorescence at 665 and 620 nm. The following compounds were tested in the above assay. Some compounds were tested more than once, and the average is reported below.
(In TR-FRET formats the signal depends on donor and acceptor labels being close together.)

The structures appear in SMILES notation.

T1 sequence (P56817 46-501): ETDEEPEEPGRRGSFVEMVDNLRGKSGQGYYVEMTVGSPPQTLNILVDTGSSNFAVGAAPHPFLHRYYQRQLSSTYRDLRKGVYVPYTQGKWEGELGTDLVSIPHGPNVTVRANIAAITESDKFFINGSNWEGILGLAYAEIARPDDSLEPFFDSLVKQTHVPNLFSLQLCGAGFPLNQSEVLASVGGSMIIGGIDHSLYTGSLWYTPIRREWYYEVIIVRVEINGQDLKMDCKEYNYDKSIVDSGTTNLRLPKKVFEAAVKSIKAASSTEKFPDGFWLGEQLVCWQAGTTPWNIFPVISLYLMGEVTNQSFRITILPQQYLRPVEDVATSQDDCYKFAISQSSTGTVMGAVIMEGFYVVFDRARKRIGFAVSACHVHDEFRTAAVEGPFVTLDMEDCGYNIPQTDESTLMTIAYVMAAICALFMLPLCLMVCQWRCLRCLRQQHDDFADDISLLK

`NC1=NC2(CO1)c1cc(-c3cncnc3)ccc1OC1CCC(O)C[C@@H]12` (stereo in doubt) [Example 32, (4a′S*,9a′R*)-2-amino-7′-(pyrimidin-5-yl)-1′,2′,3′,4′,4a′,9a′-hexahydro-5H-spiro[oxazole-4,9′-xanthen]-2′-ol]: the half-maximal inhibitory concentration (IC50) (in general, the midpoint of a concentration-inhibition curve) is 118 nM. Take `NC1=NC2(CS1)c1cc(-c3cncnc3)ccc1OC1CCC(O)C[C@@H]12` (stereo in doubt) [Example 34, (4a′S*,9aR*)-2-amino-7′-(pyrimidin-5-yl)-1′,2′,3′,4′,4a′,9a′-hexahydro-5,4-spiro[thiazole-4,9′-xanthen]-2′-ol]: the IC50 is 90.2 nM. In the case of `CCOCC1CCC2Oc3ccc(-c4cncc(Cl)c4)cc3C3(COC(N)=N3)[C@H]2O1` (stereo in doubt) [Example 98, (4a′S*,10a′R*)-8′45-chloropyridin-3-yl)-2′-(ethoxymethyl)-3′,4′,4a′,10a′-tetrahydro-2H,5H-spiro[oxazole-4,10′-pyrano[3,2-b]chromen]-2-amine], the IC50 came out at 421 nM. Consider `CN1C(=O)CC2(N=C1N)c1cc(-c3cc(F)cc(Cl)c3)ccc1OC1CC3(CCC12)OCCO3` (stereo not shown) [Example 3, 2″-amino-7′-(3-chloro-5-fluorophenyl)-1″-methyl-2′,4′,4′a,5″,6″,9′a-hexahydro-1′H,1″H-dispiro[1,3-dioxolane-2,3′-xanthene-9′,4″-pyrimidine]-6″-one], for which the half-inhibitory concentration (IC50) is 3080 nM. With `CN1C(=O)CC2(N=C1N)c1cc(-c3cc(F)cc(Cl)c3)ccc1OC1CC(=O)CCC12` (stereo not shown) [Example 4, 2-amino-7′-(3-chloro-5-fluorophenyl)-1-methyl-1′,4′,4a′,9a′-tetrahydro-1H-spiro[pyrimidine-4,9′-xanthene]-3′,6(2′H,5H)-dione], the IC50 was 1190 nM. Take `NC1=NC2(CO1)c1cc(-c3cncc(Cl)c3)ccc1OC1CCC(F)CC12` (stereo not shown) [Example 27, 7′-(5-chloropyridin-3-yl)-2′-fluoro-1′,2′,3′,4′,4a′,9a′-hexahydro-5H-spiro[oxazole-4,9′-xanthen]-2-amine]: the IC50 is 64.2 nM. With `NC1=NC2(CO1)c1cc(-c3cncc(Cl)c3)ccc1O[C@H]1CCC(O)C[C@H]12` (stereo partly shown) [Example 48, (4a′S,9a′S)-2-amino-7′-(5-chloropyridin-3-yl)-1′,2′,3′,4′,4a′,9a′-hexahydro-5H-spiro[oxazole-4,9′-xanthen]-2′-ol] the figure was 2550 nM; with `COC1CCC2Oc3ccc(-c4cncc(Cl)c4)cc3C3(COC(N)=N3)C2C1` (stereo not shown) [Example 54, 7′-(5-chloropyridin-3-yl)-2′-methoxy-1′,2′,3′,4′,4a′,9a′-hexahydro-5H-spiro[oxazole-4,9′-xanthen]-2-amine], 33.5 nM; with `N#Cc1cc(Cl)cc(-c2ccc3c(c2)[C@@]2(COC(N)=N2)[C@H]2C[C@@H](O)CC[C@@H]2O3)c1` [Example 140, 3-((2′S,4R,4a′S,9a′R)-2-amino-2′-hydroxy-1′,2′,3′,4′,4a′,9a′-hexahydro-5H-spiro[oxazole-4,9′-xanthen]-7′-yl)-5-chlorobenzonitrile], 48.3 nM. With `NC1=N[C@@]2(CS1)c1cc(-c3cncnc3)ccc1O[C@H]1CC[C@H](O)C[C@@H]12` [Example 146, (2′S,4R,4a′S,9a′R)-2-amino-7′-(pyrimidin-5-yl)-1′,2′,3′,4′,4a′,9a′-hexahydro-5H-spiro[thiazole-4,9′-xanthen]-2′-ol], the half-maximal inhibitory concentration (IC50) is 192 nM. As to `NC1=N[C@@]2(CO1)c1cc(-c3cncnc3)ccc1O[C@H]1CC[C@H](OCC3CC3)C[C@@H]12` [Example 150, (2′S,4R,4a′S,9a′R)-2′-(cyclopropylmethoxy)-7′-(pyrimidin-5-yl)-1′,2′,3′,4′,4a′,9a′-hexahydro-5H-spiro[oxazole-4,9′-xanthen]-2-amine], the IC50 turned out to be 100 nM. Turning to `CC(C)O[C@H]1CCC2Oc3ccc(-c4cccnc4F)cc3C3(COC(N)=N3)[C@H]2C1` (stereo partly drawn) [Example 155, (2′S,4a′S,9aR)-7′-(2-fluoropyridin-3-yl)-2′-isopropoxy-1′,2′,3′,4′,4a′,9a′-hexahydro-5H-spiro[oxazole-4,9′-xanthen]-2-amine], the half-inhibitory concentration (IC50) turned out to be 71.4 nM. With `N#Cc1cc(Cl)cc(-c2ccc3c(c2)[C@@]2(COC(N)=N2)[C@H]2C[C@@H](OC4CCC4)CC[C@@H]2O3)c1` [Example 156, 3-((2′S,4R,4a′S,9a′R)-2-amino-2′-cyclobutoxy-1′,2′,3′,4′,4a′,9a′-hexahydro-5H-spiro[oxazole-4,9′-xanthen]-7′-yl)-5-chlorobenzonitrile] the figure was 92.8 nM; with `CCO[C@H]1CC[C@@H]2Oc3ccc(-c4cc(F)cc(C#N)c4)cc3C3(COC(N)=N3)[C@H]2C1` (stereo partly drawn) [Example 159, 3-((2′S,4a′S,9a′R)-2-amino-2′-ethoxy-1′,2′,3′,4′,4a′,9a′-hexahydro-5H-spiro[oxazole-4,9′-xanthen]-7′-yl)-5-fluorobenzonitrile], 76.1 nM; with `NC1=NC2(CO1)c1cc(-c3cccnc3F)ccc1OC1CCC3(CCO3)C[C@@H]12` (stereo partly shown) [Example 199], 630 nM. As to `C[C@@]12CCO[C@@H]1[C@@]1(COC(N)=N1)c1cc(-c3cc(F)cc(Cl)c3)ccc1O2` [Example 266, (3aR,4′S,9aR)-7-(3-chloro-5-fluorophenyl)-3a-methyl-2,3,3a,9a-tetrahydro-5′H-spiro[furo[3,2-b]chromene-9,4′-oxazol]-2′-amine], the IC50 was 5290 nM.
